This note sets out measurements from patent US20260240976A1, “T[…] VACCINES BASED ON VALIDATED TARGET EPITOPES” (Deutsches Krebsforschungszentrum Stiftung des öffentlichen …, priority 2023, published 2026).

One experiment deals with short-term antigen-specific T cell lines generated from PBMCs. In words: Interferon-γ ELISpot assay on short-term antigen-specific T cell lines. It is filed as cell-based, human. Conditions: HLA restriction A01.
Turning to “7 (TTDLYCYEQ; Human papillomavirus 16) [compound 7]”, the “ELISpot: Immungenicity of the peptide shown by IFN-gamma ELISPOT analysis” value (“ELISpot: Immungenicity” below) is on record as “+”.

Turning to “3 (TIHDIILQCVY; Human papillomavirus 16) [compound 3]”, the “ELISpot: Immungenicity” value is “+”.

Still in this experiment, the particulars now being: HLA restriction A02.
As for “24 (DLLMGTLGIVC; Human papillomavirus 16) [compound 24]”, the “ELISpot: Immungenicity” value was “+”.

The same experiment, now with this note: HLA restriction A03.
For “61 (IVYRDGNPY; Human papillomavirus 16) [compound 61]”, the “ELISpot: Immungenicity” value was “+”.

Regarding “137 (RHYCYSLY; Human papillomavirus 16) [compound 137]”, the “ELISpot: Immungenicity” value was “+”.

The same experiment, now with this note: HLA restriction A11.
Turning to “64 (AVCDKCLKFYS; Human papillomavirus 16) [compound 64]”, the “ELISpot: Immungenicity” value is given as “+”.

With “74 (DLLIRCINCQK; Human papillomavirus 16) [compound 74]”, the “ELISpot: Immungenicity” value was “+”.

Consider “60 (AFRDLCIVYR; Human papillomavirus 16) [compound 60]”, for which the “ELISpot: Immungenicity” value is “+”.

On to “59 (FAFRDLCIVYR; Human papillomavirus 16) [compound 59]”, for which the “ELISpot: Immungenicity” value is recorded as “+”.

For “61 (IVYRDGNPY; Human papillomavirus 16) [compound 61]”, the “ELISpot: Immungenicity” value was “+”.

Turning to “65 (VCDKCLKFYSK; Human papillomavirus 16) [compound 65]”, the “ELISpot: Immungenicity” value was “+”.

“62 (NPYAVCDKCLK; Human papillomavirus 16) [compound 62]”: the “ELISpot: Immungenicity” value is “+”.

The same experiment, now with this note: HLA restriction A24.
As to “89 (HYNIVTFCC; Human papillomavirus 16) [compound 89]”, the “ELISpot: Immungenicity” value is given as “+”.

“84 (PYAVCDKCLKF; Human papillomavirus 16) [compound 84]”: the “ELISpot: Immungenicity” value is listed as “+”.

The experiment is the same for the next values; noted with them: HLA restriction B07.
As to “97 (RPRKLPQL; Human papillomavirus 16) [compound 97]”, the “ELISpot: Immungenicity” value is “+”.

Turning to “102 (EPDRAHYNIV; Human papillomavirus 16) [compound 102]”, the “ELISpot: Immungenicity” value is recorded as “+”.

In the case of “101 (NIRGRWTGRCM; Human papillomavirus 16) [compound 101]”, the “ELISpot: Immungenicity” value is reported as “+”.

Staying with this experiment, now noted: HLA restriction B15.
Regarding “116 (LCIVYRDGNPY; Human papillomavirus 16) [compound 116]”, the “ELISpot: Immungenicity” value is “+”.

With “117 (YRHYCYSVY; Human papillomavirus 16) [compound 117]”, the “ELISpot: Immungenicity” value was “+”.

As for “115 (FAFRDLCIVY; Human papillomavirus 16) [compound 115]”, the “ELISpot: Immungenicity” value is “+”.

Take “107 (KQQLLRREVY; Human papillomavirus 16) [compound 107]”: the “ELISpot: Immungenicity” value is recorded as “+”.

For “101 (NIRGRWTGRCM; Human papillomavirus 16) [compound 101]”, the “ELISpot: Immungenicity” value was “+”.

As for “108 (AFRDLCIVY; Human papillomavirus 16) [compound 108]”, the “ELISpot: Immungenicity” value is “+”.

The same experiment, now with this note: comparison among the peptides in Table 1.
In the case of “97 (RPRKLPQL; Human papillomavirus 16) [compound 97]”, the “rates of immunoactivation in PBMC samples, CD8 T cell responses and/or numbers of HPV16 positive cell lines presenting the peptide as HLA-complexes” value (“rates of immunoactivation” below) is on record as “highest rates of immunoactivation in PBMC samples, to induce the strongest CD8 T cell responses, and/or shown to be presented as HLA-complexes by the highest numbers of HPV16 positive cell lines”.

For the substance “107 (KQQLLRREVY; Human papillomavirus 16) [compound 107]”, the “rates of immunoactivation” value is given as “highest rates of immunoactivation in PBMC samples, to induce the strongest CD8 T cell responses, and/or shown to be presented as HLA-complexes by the highest numbers of HPV16 positive cell lines”.

As for “109 (LQPETTDLY; Human papillomavirus 16) [compound 109]”, the “rates of immunoactivation” value was “highest rates of immunoactivation in PBMC samples, to induce the strongest CD8 T cell responses, and/or shown to be presented as HLA-complexes by the highest numbers of HPV16 positive cell lines”.

As to “108 (AFRDLCIVY; Human papillomavirus 16) [compound 108]”, the “rates of immunoactivation” value is “highest rates of immunoactivation in PBMC samples, to induce the strongest CD8 T cell responses, and/or shown to be presented as HLA-complexes by the highest numbers of HPV16 positive cell lines”.

A further experiment has as its system peptide-specific T cell cultures. In words: T cell phenotyping and intracellular cytokine staining (IFN-gamma, TNF-alpha). It is filed as cell-based, human. As to conditions: HLA restriction A01. The arrangement: key: +: cytokine: Immunogenicity of the peptide shown by intracellular cytokine staining (IFN-gamma, TNF-alpha); +*: *highlights data from published resources.; *highlights data from published resources. As to the method:
To characterize and quantify the responsive cells upon peptide stimulation, the peptide-specific T cell cultures with positive ELISpot results were further analyzed with T cell phenotyping and intracellular cytokine staining (ICS) assessed by flow cytometry.
The cells of the respective continued short-term T cell culture as well as the DMSO-stimulated and an unresponsive T cell line were harvested into 2 mL reaction tubes and centrifuged at 400×g for 10 min. The supernatant was discarded and the pellet of the unresponsive T cell line was resuspended in 100 μL ELISpot medium and used as unstimulated and unstained control. The pellets of the responsive and the DMSO-stimulated T cell lines were resuspended in 200 μL ELISpot medium and split equally into two wells of a V-bottom 96-well plate. One well of the responsive T cell lines was re-stimulated with 10 μg/mL of its specific peptide while the other well was mock stimulated with 0.1% (v/v) DMSO. As positive control, one well of the DMSO-stimulated T cell line was activated by treatment with 20 ng/ml Phorbol 12-myristate 13-acetate and 1 μM lonomycin. Then, 1:10 diluted GolgiStop (containing monensin) and 1:15 diluted GolgiPlug (containing brefeldin A) were added to all wells to inhibit intracellular transport processes. Monensin inhibits the trans-Golgi transport, while brefeldin A inhibits transport between the ER and the Golgi (Chardin and McCormick, 1999; Mollenhauer et al., 1990). The stimulated cells were incubated for 5 h at standard culture conditions.
After incubation, the cells were resuspended, centrifuged at 400×g for 5 min and the supernatant was discarded. Then, the cells were resuspended in 50 μL cold staining buffer (unstained) or 50 μL cold staining buffer containing the phenotyping antibodies against CD3, CD4, CD8 and the LIVE/DEAD™ Fixable Near-IR Dead Cell Stain (unstimulated and stimulated) and incubated at 4° C. for 30 min. After the surface staining, the cells were washed twice with 200 μL staining buffer and centrifugation at 1400 rpm, followed by fixation with 1% paraformaldehyde (PFA) solution for 15 min at 4° C. All following centrifugation steps were carried out at 1400 rpm for 5 min. After fixation, the cells were again washed twice with 200 μL cold staining buffer and were then resuspended in 100 μL 1× perm/wash buffer diluted in PBS (provided is 10×) for 15 min at 4° C. for cell membrane permeabilization. Subsequently, the plate was centrifuged and the supernatant was discarded. The cells were resuspended in 50 μL perm/wash buffer diluted in PBS (unstained) or 50 μL perm/wash buffer containing the intracellular cytokine antibodies against IFNγ, TNFα and granzyme B (unstimulated and stimulated) for 30 min at 4° C. After intracellular cytokine staining, the cells were washed twice with 200 μL 1× perm/wash buffer. Then 100 μL fix/perm solution (provided in the BD Cytofix/Cytoperm kit) were added per well. After 20 min of incubation at 4° C., the cells of each well were washed twice with 200 μL 1× perm/wash buffer before being resuspended in 100 μL staining buffer and stored at 4° C. overnight.
OneComp eBeads™ (eBeads) and ArC™ Amine Reactive Compensation beads (ArC beads) were stained as compensation controls. For each antibody, 50 μL of the eBeads suspension were stained with the same dilution as used for staining the cells. The ArC beads were stained with 1 μL LIVE/DEAD™ Fixable Near-IR Dead Cell Stain stock solution in 50 μL staining buffer. The beads were incubated at 4° C. for 30 min and were then washed two times with 1 mL staining buffer and centrifugation at 400×g. Finally, the stained beads were resuspended in 400 μL staining buffer, one drop of ArC™ negative beads was added to the labelled ArC beads, and all beads were stored at 4° C. overnight.
On the next day, the samples and the single stained compensation controls were acquired at a BD FACS Canto™ II analyzer using the BD FACS Diva Software Version 6. […]
Regarding “7 (TTDLYCYEQ; Human papillomavirus 16) [compound 7]”, the “cytokine: Immunogenicity of the peptide shown by intracellular cytokine staining (IFN-gamma, TNF-alpha)” value (from here on “cytokine: Immunogenicity”) is given as “+”.

Regarding “3 (TIHDIILQCVY; Human papillomavirus 16) [compound 3]”, the “cytokine: Immunogenicity” value is “+”.

Still in this experiment, the particulars now being: HLA restriction A02.
Turning to “24 (DLLMGTLGIVC; Human papillomavirus 16) [compound 24]”, the “cytokine: Immunogenicity” value is listed as “+”.

The experiment is the same for the next values; noted with them: HLA restriction A03.
In the case of “61 (IVYRDGNPY; Human papillomavirus 16) [compound 61]”, the “cytokine: Immunogenicity” value is “+”.

On to “137 (RHYCYSLY; Human papillomavirus 16) [compound 137]”, for which the “cytokine: Immunogenicity” value was “+”.

Still in this experiment, the particulars now being: HLA restriction A11.
Turning to “64 (AVCDKCLKFYS; Human papillomavirus 16) [compound 64]”, the “cytokine: Immunogenicity” value was “+”.

With “74 (DLLIRCINCQK; Human papillomavirus 16) [compound 74]”, the “cytokine: Immunogenicity” value is listed as “+”.

As for “60 (AFRDLCIVYR; Human papillomavirus 16) [compound 60]”, the “cytokine: Immunogenicity” value is “+”.

For the substance “59 (FAFRDLCIVYR; Human papillomavirus 16) [compound 59]”, the “cytokine: Immunogenicity” value is “+”.

With “61 (IVYRDGNPY; Human papillomavirus 16) [compound 61]”, the “cytokine: Immunogenicity” value is reported as “+”.

Consider “65 (VCDKCLKFYSK; Human papillomavirus 16) [compound 65]”, for which the “cytokine: Immunogenicity” value is “+”.

Consider “62 (NPYAVCDKCLK; Human papillomavirus 16) [compound 62]”, for which the “cytokine: Immunogenicity” value is recorded as “+”.

The experiment is the same for the next values; noted with them: HLA restriction A24.
Turning to “89 (HYNIVTFCC; Human papillomavirus 16) [compound 89]”, the “cytokine: Immunogenicity” value was “+”.

Consider “84 (PYAVCDKCLKF; Human papillomavirus 16) [compound 84]”, for which the “cytokine: Immunogenicity” value is recorded as “+”.

The same experiment, now with this note: HLA restriction B07.
“97 (RPRKLPQL; Human papillomavirus 16) [compound 97]”: the “cytokine: Immunogenicity” value is listed as “+”.

“102 (EPDRAHYNIV; Human papillomavirus 16) [compound 102]”: the “cytokine: Immunogenicity” value is “+”.

As to “101 (NIRGRWTGRCM; Human papillomavirus 16) [compound 101]”, the “cytokine: Immunogenicity” value is reported as “+”.

Still in this experiment, the particulars now being: HLA restriction B15.
As to “116 (LCIVYRDGNPY; Human papillomavirus 16) [compound 116]”, the “cytokine: Immunogenicity” value is “+”.

Turning to “117 (YRHYCYSVY; Human papillomavirus 16) [compound 117]”, the “cytokine: Immunogenicity” value is listed as “+”.

Consider “115 (FAFRDLCIVY; Human papillomavirus 16) [compound 115]”, for which the “cytokine: Immunogenicity” value is recorded as “+”.

As to “107 (KQQLLRREVY; Human papillomavirus 16) [compound 107]”, the “cytokine: Immunogenicity” value was “+”.

As to “101 (NIRGRWTGRCM; Human papillomavirus 16) [compound 101]”, the “cytokine: Immunogenicity” value is listed as “+”.

Consider “109 (LQPETTDLY; Human papillomavirus 16) [compound 109]”, for which the “cytokine: Immunogenicity” value is recorded as “+”.

Take “108 (AFRDLCIVY; Human papillomavirus 16) [compound 108]”: the “cytokine: Immunogenicity” value is “+”.
